According to EPA's aquatic toxicity sets:

What follows are compounds tested on Tetrahymena pyriformis (assay: 48 h IGC50 (-log10 mol/L); higher = more toxic).

| Structure (SMILES) | 48 h IGC50 (-log10 mol/L) |
| --- | --- |
| O=[N+]([O-])c1ccc(CCl)cc1 | 4.18 |
| CC(C)CCC#N | 2.21 |
| C=CCS(=O)(=O)c1ccccc1 | 3.31 |
| CCOC(=O)C(C)(C)Br | 3.15 |
| CCCC[N+](=O)[O-] | 2.31 |
| C=CC(=O)CCC | 4.66 |
| CC(=O)CCC(C)=O | 1.6 |
| CCCCCCC(O)CCC (stereo not drawn) | 3.85 |
| CCOC(=O)C(C)Cl (stereo not drawn) | 2.57 |
| C/C(=N\O)C(=O)c1ccccc1 | 2.96 |
| CC(=O)c1c(C)c[nH]c1C | 2.68 |
| CCOC(=O)c1ccc(I)cc1 | 4.53 |
| O=[N+]([O-])c1ccc(Br)s1 | 4.41 |
| OC(c1ccccc1)c1ccccc1 | 3.5 |
| CCCCC(C(=O)OCC)C(=O)OCC | 3.56 |
| C#CCCCCO | 1.71 |
| COc1ccc(Cl)c(Cl)c1Cl | 4.64 |
| O=C1C=CCC1 | 3.64 |
| COC(=O)c1ccc(C(C)(C)C)cc1 | 3.92 |
| Cc1cccc2ccccc12 | 3.74 |
| CCCCCCCCCCCC#N | 4.9 |
| Fc1nc(F)c(F)c(Br)c1F | 2.87 |
| COC(=O)CCCCCCCCCCCC(=O)OC | 4.65 |
| CCOC(=O)C[C@@H](C)O | 1.47 |

| Structure (SMILES) | 48 h IGC50 (-log10 mol/L) |
| --- | --- |
| CC(O)CCO (stereo not drawn) | 0.699 |
| O=C(O)CCCC(=O)O | 2.36 |
| N#CCC(=O)OC1CCCCC1 | 2.91 |
| Nc1ccc([N+](=O)[O-])cn1 | 3.22 |
| CCCCCc1cccs1 | 4.2 |
| O=Cc1ccc(Cl)s1 | 3.62 |
| CC(C)OC(=O)CC#N | 2.05 |
| Clc1sccc1Br | 3.73 |
| CCC(=O)c1ccco1 | 2.23 |
| CCC(=O)c1ccc(O)cc1 | 3.12 |
| C/C=C/CC(=O)OC | 2.72 |
| O=Cc1cccc(Br)c1 | 3.51 |
| N#CC(Cl)(Cl)Cl | 4.88 |
| CC(C)(C)c1ccncc1 | 3.2 |
| Cc1ccc(C#N)cc1 | 2.9 |
| CCC(Cl)C(=O)O (stereo not drawn) | 2.65 |
| C#CC(O)CC (stereo not drawn) | 1.82 |
| CCCC#CC(=O)OCC | 3.7 |
| C=CCc1ccccc1 | 3.19 |
| O=C(O)CCCCl | 2.32 |
| CC(=O)c1ccc(C)o1 | 2.17 |
| O=C(O)c1c(Cl)cccc1Cl | 2.33 |
| CCOC(=O)c1ccc([N+](=O)[O-])cc1 | 3.71 |
| CCCCCCC(=O)OC | 3.1 |

| Structure (SMILES) | 48 h IGC50 (-log10 mol/L) |
| --- | --- |
| Cc1cc2ccccc2o1 | 3.62 |
| Cc1cccc(C)n1 | 2.19 |
| N#Cc1ccccc1O | 3.04 |
| O=Cc1c(O)ccc2ccccc12 | 4.32 |
| C=CC(O)CC (stereo not drawn) | 1.65 |
| O=[N+]([O-])c1cc(CO)cc([N+](=O)[O-])c1 | 3.53 |
| O=Cc1cccc2ccccc12 | 3.42 |
| C/C=C/C(=O)OCCCC | 2.84 |
| CCCC(C)C=O (stereo not drawn) | 2.53 |
| C=COC(=O)C(=C)C | 2.38 |
| O=[N+]([O-])c1cc(Cl)ccc1Cl | 4.13 |
| CCCCCN=C=S | 4.71 |
| CC(C)(C)c1ccc(O)cc1 | 3.91 |
| C=CC(=O)OCCC | 3.53 |
| O=C(CBr)Oc1ccc([N+](=O)[O-])cc1 | 4.81 |
| CC(Br)c1ccccc1 (stereo not drawn) | 2.33 |
| CCOc1cc(O)ccc1OC | 2.7 |
| CCOC(=O)CCCCCBr | 3.59 |
| CCCCCCCCCCN | 5.06 |
| CCOC(=O)CCC(=O)CCC(=O)OCC | 2.36 |
| Cc1ccc2ccccc2c1C=O | 4.23 |
| O=Cc1cc(C(F)(F)F)cc(Cl)c1F | 4.24 |
| CCCCCCCCC(=O)O | 3.35 |
| CCCCCCCCCCC(=O)OC | 4.42 |

| Structure (SMILES) | 48 h IGC50 (-log10 mol/L) |
| --- | --- |
| CCCOC(=O)CCC | 2.59 |
| Oc1ccc(Cl)c(Cl)c1 | 4.75 |
| CCCCCCC/C=C/C=O | 4.85 |
| CCNc1ccccc1 | 3.07 |
| OCCCCO | 0.764 |
| C#CC(O)CCCC (stereo not drawn) | 2.73 |
| N#Cc1ccc(Cl)cc1 | 3 |
| Cc1ccc(Cl)c(O)c1 | 3.54 |
| N#Cc1ccc(Cl)c([N+](=O)[O-])c1 | 4.71 |
| O=[N+]([O-])c1ccc(O)c(F)c1 | 4.07 |
| Cc1ccc(Cl)c(C=O)c1F | 3.74 |
| OCc1ccccc1O | 2.05 |
| O=C(Cc1ccccc1)c1ccc(O)cc1 | 4.07 |
| Cc1cc(O)cc(C)c1Br | 4.27 |
| CC(=O)c1ccc(O)c(C(N)=O)c1 | 2.9 |
| O=C(CBr)Oc1ccccc1 | 5.08 |
| O=Cc1ccccc1F | 3.08 |
| O=Cc1ccc(F)cc1 | 2.87 |
| COC(=O)c1ccc(C=O)cc1 | 3.3 |
| S=C=NCCCc1ccccc1 | 5.54 |
| S=C=NC(c1ccccc1)c1ccccc1 | 6.05 |
| C=CCOC(=O)CC#N | 2.21 |
| CC(Cl)C#N (stereo not drawn) | 2.14 |
| O=Cc1ccc[nH]1 | 2.52 |

| Structure (SMILES) | 48 h IGC50 (-log10 mol/L) |
| --- | --- |
| OCCc1ccc(Cl)cc1 | 3.32 |
| N#Cc1cccs1 | 2.24 |
| CCCOC(=O)c1ccccc1 | 3.42 |
| Cc1cccc(N)c1C | 2.57 |
| CCOC(=O)c1ccc(O)cc1 | 3.57 |
| CCCC(Br)C(=O)O (stereo not drawn) | 2.96 |
| CCCCC(O)CC (stereo not drawn) | 2.51 |
| C=CC(=O)OCCCC | 3.52 |
| CCN(C)c1ccccc1 | 3.29 |
| O=[N+]([O-])c1c(Cl)cc(Cl)cc1Cl | 4.43 |
| O=C(c1ccccc1)c1ccc(O)cc1O | 4.37 |
| Cc1cc(O)c([N+](=O)[O-])cc1Cl | 4.63 |
| CC(C)(C)CC=O | 2.63 |
| O=C(c1ccccc1)C(F)(F)F | 2.99 |
| CCCCCBr | 3.48 |
| C=CCOC(C)=O | 3.48 |
| C=CCOC(=O)C=CC | 2.52 |
| C=COC(=O)CCCCCCC | 2.7 |
| N#CCCCCl | 2.07 |
| Cc1cccc(CO)c1 | 2.76 |
| NC(=O)c1ccc([N+](=O)[O-])cc1 | 3.18 |
| Cc1ccccc1C#N | 2.76 |
| CCOC(=O)C(C#N)c1ccccc1 (stereo not drawn) | 2.98 |
| Cc1cc(O)c(Cl)cc1C | 3.69 |

| Structure (SMILES) | 48 h IGC50 (-log10 mol/L) |
| --- | --- |
| CCCCS(=O)(=O)CCCC | 2.74 |
| CCCCCCc1ccc(O)cc1O | 4.8 |
| O=[N+]([O-])c1ccncc1 | 3.41 |
| CCC(=O)CC | 1.54 |
| CCCCCC1CCCC(=O)O1 (stereo not drawn) | 2.92 |
| CC(C)(O)C#CC(C)(C)O | 1.42 |
| OCc1ccccc1-c1ccccc1 | 3.82 |
| CC/C=C/CBr | 3.77 |
| CCN(C)C | 2.09 |
| Cc1ccc([N+](=O)[O-])cc1O | 3.66 |
| CCC#CCO | 2.43 |
| CCCCCCCCCN | 4.7 |
| Cc1cc2ccccc2n1C | 3.84 |
| CCC(=O)CC(=O)CC | 2.62 |
| CCc1cccs1 | 2.57 |
| CC(=O)c1ccn(C)c1 | 2 |
| Cc1ccc(Cl)cc1N | 3.5 |
| Cc1ccc(O)cc1[N+](=O)[O-] | 3.74 |
| CC(=O)OC1=CCCCC1 | 2.6 |
| OC(CCl)CCl | 2.21 |
| OCCBr | 2.15 |
| CCCCCC(N)=O | 2.09 |
| O=[N+]([O-])c1cccc(-c2ccccc2)c1 | 4.57 |
| C#CCC(O)CC (stereo not drawn) | 1.6 |

| Structure (SMILES) | 48 h IGC50 (-log10 mol/L) |
| --- | --- |
| COC(=O)CCCCCCC(=O)OC | 3.3 |
| CCCCOc1ccc(C=O)cc1 | 3.72 |
| CCCCCCCC(O)CCCCC (stereo not drawn) | 5.24 |
| O=C(O)CCCCCCCBr | 4.32 |
| CCc1ccc(N)cc1 | 3.03 |
| CC#CCCO | 1.82 |
| CCCCCCOc1ccc(N)cc1 | 4.38 |
| CCCCC/C=C/CCC=O | 4.21 |
| Cc1ccc(CCN)cc1 | 2.96 |
| Ic1ccccc1 | 3.36 |
| ClCC=CCCl | 4.02 |
| O=C(O)c1cc(Cl)ccc1Cl | 2.54 |
| Oc1c(-c2ccccc2)cccc1-c1ccccc1 | 5.11 |
| C=C(C)C(=O)OCC(CC)CCCC (stereo not drawn) | 4.57 |
| OC/C=C\CO | 0.851 |
| CCOC(=O)C(C)C | 1.73 |
| CC(Br)C#N (stereo not drawn) | 3.63 |
| C=COC(=O)C=C | 4.42 |
| Nc1ccccc1Cl | 2.83 |
| Cc1c(N)ccc(O)c1C | 4.44 |
| C/C=C/C(=O)O | 2.46 |
| C=CC(=O)CC | 4.52 |
| OCCc1ccccc1 | 2.41 |
| C=C(C=O)CCCC | 4.07 |
